Reference: PMC10674894 (Viruses, 2023)

Experiments:
CHIKV DRDE-07 = assay: In vitro screening against CHIKV (CPE inhibition and MTT cell viability); format: cell-based, chikungunya virus; settings: Table S1, CHIKV-infected Vero cells; for % Cell viability: 72 hpi, MTT assay; for CPE: arbitrary score of cytopathic effect at >48 hpi
Vero cells = assay: Cytotoxicity MTT assay in Vero cells (MNTD, CC50); format: cell-based, African green monkey; settings: Table S1; Vero cells

Compound | % Cell viability (CHIKV DRDE-07) | CPE (CHIKV DRDE-07) | MNTD (Vero cells)
COc1ccc(/C(=N\NC(=O)c2cccnc2)c2ccccc2)cc1 [DCR48, (Z)-N'-((4-methoxyphenyl)(phenyl)methylene)nicotinohydrazide] | 20.87% | ++++ (>60% (++++)) | 31.25 µM
C/C(=N\NC(=O)c1ccncc1)c1ccccc1O [DCR49, (E)-N'-(1-(2-hydroxyphenyl)ethylidene)isonicotinohydrazide] | 48.9% | +++ (60-50% (+++)) | 62.5 µM
C/C(=N\NC(=O)c1ccncc1)c1ccc(O)cc1 [DCR50, (E)-N'-(1-(4-hydroxyphenyl)ethylidene)isonicotinohydrazide] | 18.01% | ++++ (>60% (++++)) | 62.5 µM
C/C(=N\NC(=O)c1ccncc1)c1ccccc1N [DCR51, (E)-2-(1-(2-isonicotinoylhydrazono)ethyl)benzenaminium] | -2.93% | ++++ (>60% (++++)) | 62.5 µM
C/C(=N\NC(=O)c1ccncc1)c1c(O)ccc2ccccc12 [DCR52, N'-[(1E)-1-(2-hydroxynaphthalen-1-yl)ethylidene]pyridine-4-carbohydrazide] | 30.87% | ++++ (>60% (++++)) | 31.25 µM
COc1ccc(/C(=N\NC(=O)c2ccncc2)c2ccccc2)cc1 [DCR53, N'-[(1Z)-(4-methoxyphenyl)(phenyl)methylidene]pyridine-4-carbohydrazide] | 11.42% | ++++ (>60% (++++)) | 31.25 µM
O=C(c1cccnc1)n1nc(-c2ccc(O)cc2)cc1-c1ccc(Cl)cc1Cl [DCR54, 4-[5-(2,4-dichlorophenyl)-1-(pyridine-3-carbonyl)-1H-pyrazol-3-yl]phenol] | 8.73% | ++++ (>60% (++++)) | 15.62 µM
O=C(c1cccnc1)n1nc(-c2ccc(O)cc2)cc1-c1ccccc1 [DCR55, 4-[5-phenyl-1-(pyridine-3-carbonyl)-1H-pyrazol-3-yl]phenol] | 17.69% | ++++ (>60% (++++)) | 31.25 µM
Cc1ccc(-c2cc(-c3ccc(O)cc3)nn2C(=O)c2cccnc2)cc1 [DCR56, 4-[5-(4-methylphenyl)-1-(pyridine-3-carbonyl)-1H-pyrazol-3-yl]phenol] | 24.2% | ++++ (>60% (++++)) | 31.25 µM
Cc1ccc(-c2cc(-c3ccc(O)cc3)nn2C(=O)c2cccnc2)cc1 [DCR57, 4-[5-(4-methylphenyl)-1-(pyridine-3-carbonyl)-1H-pyrazol-3-yl]phenol] | 24.84% | ++++ (>60% (++++)) | 31.25 µM
CCOc1ccc(-c2cc(-c3ccc(O)cc3)nn2C(=O)c2cccnc2)cc1OC [DCR58, 4-[5-(4-ethoxy-3-methoxyphenyl)-1-(pyridine-3-carbonyl)-1H-pyrazol-3-yl]phenol] | 8.17% | ++++ (>60% (++++)) | 15.62 µM
CCOc1cc(-c2cc(-c3ccc(O)cc3)nn2C(=O)c2cccnc2)ccc1O [DCR59, 2-ethoxy-4-[3-(4-hydroxyphenyl)-1-(pyridine-3-carbonyl)-1H-pyrazol-5-yl]phenol] | 49.1% | +++ (60-50% (+++)) | 15.62 µM
COc1cc(-c2cc(-c3ccc(O)cc3)nn2C(=O)c2cccnc2)cc(OC)c1OC [DCR60, 4-[1-(pyridine-3-carbonyl)-5-(3,4,5-trimethoxyphenyl)-1H-pyrazol-3-yl]phenol] | -3.41% | ++++ (>60% (++++)) | 31.25 µM
COc1ccc(Br)cc1-c1cc(-c2ccc(O)cc2)nn1C(=O)c1cccnc1 [DCR61, 4-[5-(5-bromo-2-methoxyphenyl)-1-(pyridine-3-carbonyl)-1H-pyrazol-3-yl]phenol] | 12.22% | ++++ (>60% (++++)) | 31.25 µM
O=C(O)c1ccc(-c2cc(-c3ccc(O)cc3)nn2C(=O)c2cccnc2)cc1 [DCR62, 4-[3-(4-hydroxyphenyl)-1-(pyridine-3-carbonyl)-1H-pyrazol-5-yl]benzoic acid] | -27.93% | ++++ (>60% (++++)) | 31.25 µM
O=C(c1cccnc1)n1nc(-c2ccc(O)cc2)cc1-c1cccc([N+](=O)[O-])c1 [DCR63, 4-[5-(3-nitrophenyl)-1-(pyridine-3-carbonyl)-1H-pyrazol-3-yl]phenol] | -4.2% | ++++ (>60% (++++)) | 31.25 µM
O=C1NC(c2ccc(Cl)cc2)c2c(ccc3ccccc23)O1 (stereo not drawn) [DCR64, 1-(4-chlorophenyl)-1H,2H,3H-naphtho[1,2-e][1,3]oxazin-3-one] | -3.8% | ++++ (>60% (++++)) | 31.25 µM
O=C1NC(c2ccc(F)cc2)c2c(ccc3ccccc23)O1 (stereo not drawn) [DCR65, 1-(4-fluorophenyl)-1H,2H,3H-naphtho[1,2-e][1,3]oxazin-3-one] | 12.63% | ++++ (>60% (++++)) | 53.27 µM

Compound | % Cell viability (CHIKV DRDE-07) | CPE (CHIKV DRDE-07) | MNTD (Vero cells)
Cc1ccc(C2NC(=O)Oc3ccc4ccccc4c32)cc1 (stereo not drawn) [DCR66, 1-(4-methylphenyl)-1H,2H,3H-naphtho[1,2-e][1,3]oxazin-3-one] | 12.24% | ++++ (>60% (++++)) | 54 µM
O=C1NC(c2cccc(Cl)c2)c2c(ccc3ccccc23)O1 (stereo not drawn) [DCR67, 1-(3-chlorophenyl)-1H,2H,3H-naphtho[1,2-e][1,3]oxazin-3-one] | 10.94% | ++++ (>60% (++++)) | 50.44 µM
O=C1NC(c2cccc(Cl)c2)c2c(ccc3ccccc23)O1 (stereo not drawn) [DCR68, 1-(3-chlorophenyl)-1H,2H,3H-naphtho[1,2-e][1,3]oxazin-3-one] | 10.84% | ++++ (>60% (++++)) | 53.27 µM
CCOc1ccc(C2NC(=O)Oc3ccc4ccccc4c32)cc1 (stereo not drawn) [DCR69, 1-(4-ethoxyphenyl)-1H,2H,3H-naphtho[1,2-e][1,3]oxazin-3-one] | 7.61% | ++++ (>60% (++++)) | 195.71 µM
O=C1NC(c2ccc(C(F)(F)F)cc2)c2c(ccc3ccccc23)O1 (stereo not drawn) [DCR70, 1-[4-(trifluoromethyl)phenyl]-1H,2H,3H-naphtho[1,2-e][1,3]oxazin-3-one] | 10.59% | ++++ (>60% (++++)) | 45.44 µM
O=C1NC(c2ccc(OC(F)(F)F)cc2)c2c(ccc3ccccc23)O1 (stereo not drawn) [DCR71, 1-[4-(trifluoromethoxy)phenyl]-1H,2H,3H-naphtho[1,2-e][1,3]oxazin-3-one] | 7.44% | ++++ (>60% (++++)) | 43.42 µM
CCOc1ccc(C2NC(=O)NC(C)=C2C(=O)OCCN(C)C)cc1 (stereo not drawn) [DCR72, 2-(dimethylamino)ethyl 4-(4-ethoxyphenyl)-6-methyl-2-oxo-1,2,3,4-tetrahydropyrimidine-5-carboxylate] | 25.42% | ++++ (>60% (++++)) | 31.25 µM
CC1=C(C(=O)OCCN(C)C)C(c2ccc([N+](=O)[O-])cc2)NC(=O)N1 (stereo not drawn) [DCR73, 2-(dimethylamino)ethyl 6-methyl-4-(4-nitrophenyl)-2-oxo-1,2,3,4-tetrahydropyrimidine-5-carboxylate] | 24.54% | ++++ (>60% (++++)) | 31.25 µM
CC1=C(C(=O)OCCN(C)C)C(c2ccc(C)cc2)NC(=O)N1 (stereo not drawn) [DCR74, 2-(dimethylamino)ethyl 6-methyl-4-(4-methylphenyl)-2-oxo-1,2,3,4-tetrahydropyrimidine-5-carboxylate] | 12.75% | ++++ (>60% (++++)) | 31.25 µM
CCOc1ccc(C2NC(=O)NC(C)=C2C(=O)OCC[N+](C)(C)C)cc1 (stereo not drawn) [DCR75, {2-[4-(4-ethoxyphenyl)-6-methyl-2-oxo-1,2,3,4-tetrahydropyrimidine-5-carbonyloxy]ethyl}trimethylazanium] | 10.21% | ++++ (>60% (++++)) | 31.25 µM
COc1ccc(-c2nc(CC(C)=O)no2)cc1 [DCR76, 1-[5-(4-methoxyphenyl)-1,2,4-oxadiazol-3-yl]propan-2-one] | 19.42% | ++++ (>60% (++++)) | 125 µM
CC(=O)Cc1noc(-c2ccc([N+](=O)[O-])cc2)n1 [DCR77, 1-[5-(4-nitrophenyl)-1,2,4-oxadiazol-3-yl]propan-2-one] | 10.43% | ++++ (>60% (++++)) | 125 µM
CC(=O)Cc1noc(-c2ccccc2)n1 [DCR78, 1-(5-phenyl-1,2,4-oxadiazol-3-yl)propan-2-one] | 17.32% | ++++ (>60% (++++)) | 125 µM
CC(=O)Cc1noc(C(c2ccccc2)c2ccccc2)n1 [DCR79, 1-[5-(diphenylmethyl)-1,2,4-oxadiazol-3-yl]propan-2-one] | 16.42% | ++++ (>60% (++++)) | 125 µM
CC(=O)Cc1noc(C2CCCCC2)n1 [DCR80, 1-(5-cyclohexyl-1,2,4-oxadiazol-3-yl)propan-2-one] | 29.64% | ++++ (>60% (++++)) | 125 µM
CC(=O)Cc1noc(-c2cccc([N+](=O)[O-])c2)n1 [DCR81, 1-[5-(3-nitrophenyl)-1,2,4-oxadiazol-3-yl]propan-2-one] | 0% | ++++ (>60% (++++)) | 125 µM
CC(=O)Cc1noc(-c2ccncc2)n1 [DCR82, 1-[5-(pyridin-4-yl)-1,2,4-oxadiazol-3-yl]propan-2-one] | 14.42% | ++++ (>60% (++++)) | 125 µM
CC(=O)Cc1noc(-c2cc(Cl)ccc2Cl)n1 [DCR83, 1-[5-(2,5-dichlorophenyl)-1,2,4-oxadiazol-3-yl]propan-2-one] | 10.49% | ++++ (>60% (++++)) | 230.55 µM
